Reference: ChEMBL document CHEMBL1142795, “Synthesis, structure-activity relationships, and anxiolytic activity of 7-aryl-6,7-dihydroimidazoimidazole corticotropin-releasing factor 1 receptor antagonists” (Bioorg Med Chem Lett, 2005)

Test system: not listed separately
Test: Area under curve (0-24 hr) upon oral administration of 10 mg/kg of dose in a dosing vehicle of 10/10/80 cremaphor/DMSO/water
Assay type: ADME, organism-based
Parameters: time < 24 hr, dose 10 mg/kg, route oral
Conditions: in vivo

In the case of CCCN(CC1CC1)C(=O)c1c(CC)nc2n1CCN2c1c(C)cc(C)cc1C, the AUC(0-t) at 24 h is reported as 1520 ng·h/mL.

Target: T1, Corticotropin-releasing factor receptor 1 (Homo sapiens, UniProt P34998)
T1 sequence (P34998 whole entry): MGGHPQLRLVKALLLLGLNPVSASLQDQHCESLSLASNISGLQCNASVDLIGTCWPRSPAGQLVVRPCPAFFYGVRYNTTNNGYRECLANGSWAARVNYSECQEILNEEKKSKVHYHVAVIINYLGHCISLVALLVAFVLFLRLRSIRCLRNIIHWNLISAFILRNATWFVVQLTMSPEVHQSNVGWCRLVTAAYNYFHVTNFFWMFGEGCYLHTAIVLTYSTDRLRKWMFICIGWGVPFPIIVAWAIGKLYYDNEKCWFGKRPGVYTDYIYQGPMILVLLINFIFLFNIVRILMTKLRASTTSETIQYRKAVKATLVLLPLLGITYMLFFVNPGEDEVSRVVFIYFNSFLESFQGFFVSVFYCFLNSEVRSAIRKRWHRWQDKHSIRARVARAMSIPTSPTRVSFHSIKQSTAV
Test: Displacement of [125I]-Tyr-o- CRF from human corticotropin releasing factor receptor 1 expressed in IMR-32 cells
Assay type: cell-based
Conditions: not given

Point of comparison: CCCN(Cc1c(CC)nc2n1CCN2c1c(C)cc(C)cc1C)CC1CC1, Ki 19000 nM. Against it:
- CCc1nc2n(c1C(=O)N(CC1CC1)CC1CC1)CCN2c1c(C)cc(C)cc1C — 280-fold lower, 68 nM
- CCc1nc2n(c1C(=O)Nc1ccccc1)CCN2c1c(C)cc(C)cc1C — not separable, > 10000 nM
- CCCCN(CC)C(=O)c1c(CC)nc2n1CCN2c1c(C)cc(C)cc1C — 66-fold lower, 290 nM
- CCCN(CCC1CC1)C(=O)c1c(CC)nc2n1CCN2c1c(C)cc(C)cc1C — 25-fold lower, 770 nM
- CCc1nc2n(c1C(=O)N1CCN(C(C)=O)CC1)CCN2c1c(C)cc(C)cc1C — not separable, > 10000 nM
- CCc1nc2n(c1C(=O)N(Cc1ccccc1)Cc1ccccc1)CCN2c1c(C)cc(C)cc1C — not separable, > 10000 nM
- CCCN(CC1CC1)C(=O)c1c(C)nc2n1CCN2c1c(C)cc(C)cc1C — 86-fold lower, 220 nM
- CCCN(Cc1ccccc1)C(=O)c1c(CC)nc2n1CCN2c1c(C)cc(C)cc1C — 4.6-fold lower, 4100 nM
- C=CCN(CC=C)C(=O)c1c(CC)nc2n1CCN2c1c(C)cc(C)cc1C — 6.3-fold lower, 3000 nM
- CCc1nc2n(c1C(=O)N(CC1CC1)CC(F)(F)F)CCN2c1ccc(C(C)C)cc1Br — 70-fold lower, 270 nM
- CCCN(Cc1ccc(Cl)cc1)C(=O)c1c(CC)nc2n1CCN2c1c(C)cc(C)cc1C — 6.3-fold lower, 3000 nM
- CCc1nc2n(c1C(=O)N(CCC(F)(F)F)Cc1ccc(Cl)cc1)CCN2c1c(C)cc(C)cc1C — 70-fold lower, 270 nM
- CCc1nc2n(c1C(=O)N(CC1CC1)CC(F)(F)C(F)(F)F)CCN2c1c(C)cc(C)cc1C — 300-fold lower, 63 nM
- CCc1nc2n(c1C(=O)N(CC)CC1CC1)CCN2c1c(C)cc(C)cc1C — 200-fold lower, 94 nM
- CCc1nc2n(c1C(=O)N(CC)CCC1CC1)CCN2c1c(C)cc(C)cc1C — 31-fold lower, 610 nM
- CCc1nc2n(c1C(=O)N(CC)CCN(C)C)CCN2c1c(C)cc(C)cc1C — not separable, > 10000 nM
- CCc1nc2n(c1C(=O)N(CCC1CC1)CCC(F)(F)F)CCN2c1c(C)cc(C)cc1C — 29-fold lower, 650 nM
- CCCN(Cc1cccc(F)c1)C(=O)c1c(CC)nc2n1CCN2c1c(C)cc(C)cc1C — 4.5-fold lower, 4200 nM
- CCCN(CC1CC1)C(=O)c1c(CC)nc2n1CCN2c1c(C)cc(C)cc1Br — 150-fold lower, 126 nM
- CCc1nc2n(c1C(=O)N(CC1CC1)CC(F)(F)F)CCN2c1c(C)cc(C)cc1Br — 730-fold lower, 26 nM
- CCc1nc2n(c1C(=O)N1CCN(c3ccccc3F)CC1)CCN2c1c(C)cc(C)cc1C — not separable, > 10000 nM
- CCCN(CC1CC1)C(=O)c1c(CC)nc2n1CCN2c1ccc(C(C)C)cc1Br — 12-fold lower, 1560 nM
- CCc1nc2n(c1C(=O)N1CCNCC1)CCN2c1c(C)cc(C)cc1C — not separable, > 10000 nM
- CCCN(CCC(F)(F)F)C(=O)c1c(CC)nc2n1CCN2c1c(C)cc(C)cc1C — 86-fold lower, 220 nM
- CCCN(CCc1ccccc1)C(=O)c1c(CC)nc2n1CCN2c1c(C)cc(C)cc1C — 86-fold lower, 220 nM
- CCCN(CC1CC1)C(=O)c1c(CC)nc2n1CCN2c1c(C)cc(Cl)cc1Cl — 250-fold lower, 75 nM
- CCc1nc2n(c1C(=O)N(CCC(F)(F)F)Cc1ccccc1)CCN2c1c(C)cc(C)cc1C — 29-fold lower, 660 nM
- CCc1nc2n(c1C(=O)N(CC1CC1)CC(F)(F)F)CCN2c1c(C)cc(C)cc1C — 460-fold lower, 41 nM
- CCc1nc2n(c1C(=O)N(CC1CC1)CC(F)(F)F)CCN2c1c(C)cc(C)cc1Cl — 460-fold lower, 41 nM
- CCCN(CC1CC1)C(=O)c1c(CC)nc2n1CCN2c1c(C)cc(C)cc1C — 450-fold lower, 42 nM
- CCCN(Cc1c(C)nc2n1CCN2c1c(C)cc(C)cc1C)CC1CC1 — 2.9-fold lower, 6600 nM
- CCc1nc2n(c1C(=O)N(CC1CC1)CC(F)(F)F)CCN2c1c(C)cc(Cl)cc1Cl — 790-fold lower, 24 nM
- CCCN(CCC)C(=O)c1c(CC)nc2n1CCN2c1c(C)cc(C)cc1C — 190-fold lower, 100 nM
- C=CCN(CCC)C(=O)c1c(CC)nc2n1CCN2c1c(C)cc(C)cc1C — 26-fold lower, 740 nM
- CCCN(CC1CC1)C(=O)c1c(CC)nc2n1CCN2c1c(C)cc(C)cc1Cl — 200-fold lower, 94 nM
- CCCN(CC(F)(F)F)C(=O)c1c(CC)nc2n1CCN2c1c(C)cc(C)cc1C — 310-fold lower, 61 nM
- CCc1nc2n(c1C(=O)N(CCC(F)(F)F)CC1CC1)CCN2c1c(C)cc(C)cc1C — 260-fold lower, 73 nM

Test system: not listed separately
Test: Maximum concentration upon oral administration of 10 mg/kg of dose in a dosing vehicle of 10/10/80 cremaphor/DMSO/water
Assay type: ADME, organism-based
Parameters: dose 10 mg/kg, route oral
Conditions: in vivo

Work on CCCN(CC1CC1)C(=O)c1c(CC)nc2n1CCN2c1c(C)cc(C)cc1C yielded a Cmax of 250 ng/mL.

Test system: not listed separately
Test: Clearance upon intravenous administration of 2 mg/kg of dose in a dosing vehicle of 10/10/80 cremaphor/DMSO/water
Assay type: ADME, organism-based
Parameters: dose 2 mg/kg, route intravenous
Conditions: in vivo

CCCN(CC1CC1)C(=O)c1c(CC)nc2n1CCN2c1c(C)cc(C)cc1C showed a clearance of 35 mL/min/kg.

Test system: not listed separately
Test: Volume of distribution upon intravenous administration of 2 mg/kg of dose in a dosing vehicle of 10/10/80 cremaphor/DMSO/water
Assay type: ADME, organism-based
Parameters: dose 2 mg/kg, route intravenous
Conditions: in vivo

CCCN(CC1CC1)C(=O)c1c(CC)nc2n1CCN2c1c(C)cc(C)cc1C gave a Vd of 5.7 L/kg.

Test system: not listed separately
Test: Brain to plasma (2 hours) concentration ratio upon intravenous administration of 2 mg/kg of dose in a dosing vehicle of 10/10/80 cremaphor/DMSO/water
Assay type: ADME, organism-based
Parameters: dose 2 mg/kg, route intravenous
Conditions: brain and plasma, read-out: B/P

CCCN(CC1CC1)C(=O)c1c(CC)nc2n1CCN2c1c(C)cc(C)cc1C showed a Kp at 2 h of 0.21.

Test system: not listed separately
Test: Maximum time to reach peak concentration upon oral administration of 10 mg/kg of dose in a dosing vehicle of 10/10/80 cremaphor/DMSO/water
Assay type: ADME, organism-based
Parameters: dose 10 mg/kg, route oral
Conditions: in vivo

In the case of CCCN(CC1CC1)C(=O)c1c(CC)nc2n1CCN2c1c(C)cc(C)cc1C, the Tmax is reported as 4 h.

Test system: not listed separately
Test: Bioavailability upon oral administration of 10 mg/kg of dose in a dosing vehicle of 10/10/80 cremaphor/DMSO/water
Assay type: ADME, organism-based
Conditions: eutheria, in vivo

For CCCN(CC1CC1)C(=O)c1c(CC)nc2n1CCN2c1c(C)cc(C)cc1C, the bioavailability was 32%.
